Assay results reported in patent US20060057071A1, “Paramagnetic complexes with pendant crown compounds showing improved targeting-specificity as MRI contrast agents” (priority 2004, published 2006).
Read-outs that look alike come from different tables or passages of the source.

Legend:
kidney cortex = assay: In vivo MRI, renal intensity enhancement; design: species or system rat; settings: for maximal renal intensity enhancement (IE): 0.1 mmol/kg (standard dosage), rat, first few minutes after administration
Protocol: (§1) To study the MRI contrast and biodistribution behavior of gadolinium complexes […] pendant crown ethers, experiments were performed using male Sprague-Dawley (SD) rats that weighted 150-180 g, and were housed at the Wuhan Institute of Physical and Mathematics of the Chinese Academy of Sciences (Wuhan, Hubei Province, China). All procedures conformed to the institutional guidelines for animal welfare. The rat was injected via the femoral vein with 1 mL saline solution of GdL1 in concentrations of 0.1, 0.033, and 0.02 mM/kg, which are the standard dosage, one third and one fifth of the standard dosage used in clinic currently. MR imaging was performed on a 4.7 T Bruker BIO-SPEC-47/30 MRI scanner with a custom spiral surface coil. The animal was scanned in the prone position in the MRI experiment. […] The total duration of the dynamic scanning lasted up to 400 min after the administration, with an image every 4 min. A water tube was placed in the field of view as a phantom reference. The intensity enhancement (IE) of the region of interest (RI) at time point t is expressed by IE=100% (RI(t)-RI(0))/RI(0) where RI(t) corresponds to the normalized signal intensity as measured at time point, t and RI(0) is the normalized signal intensity precontrast.

MIHA cells = assay: AO/EB staining, laser scanning confocal microscopy; format: cell-based; settings: 10 μM, 1 h, 2 h, 8 h, 24 h incubation, 37° C.
Protocol: MIHA cells in the absence (control) and presence of Gd-DOTA (10 μM), Gd-DO3A (10 μM), and GdL1 (10 μM) incubated at 37° C. and 5% CO2, 95% air in a humidified incubator for 1 h, 2 h, 8 h, and 24 h, respectively.
Based on cell morphology and cell membrane integrity, normal, necrotic, and apoptotic cells can be distinguished using laser confocal microscopy. FIG. 22 gives the cell morphology in the absence and presence of Gd-DOTA (10 μM), Gd-DO3A (10 μM), and GdL1 (10 μM) at various time intervals after the incubation. In the absence or presence of the Gd^3+ complexes, the nuclei of the living cells were stained as bright blue spots in the nucleus.

[1] = 298 K; cited from earlier work
[2] = 1H NMRD profiles (water proton relaxivity); format: physicochemical; settings: for D / TR / TV / a / q / r / Δ^2: 25° C., pH 6.9, fits of NMRD profile and 17O NMR
Description: (§2) Measuring the relaxation rates of an abundant nuclear species as a function of the magnetic field over a wide range is called relaxometry. A relaxometry profile is a plot of the nuclear magnetic relaxation rate, usually 1/T1, as a function of the Larmor frequency or the magnetic field. This profile is also called a Nuclear Magnetic Resonance Dispersion (NMRD) profile. Compared with the NMRD profile, the prominent advantage of the ^17O NMR technique is that it allows the accurate determination of the water exchange rate 1/TM. This is a consequence of the oxygen nucleus being closer to the paramagnetic centre when bound in the inner-sphere, wherein the outer-sphere contributions to the relaxation rates are negligibly small. With the help of NMRD profiles, ^17O NMR measurements, and the Soloman-Bloemnergen-Morgan theory, several important parameters, such as TM, TR, TV, Δ^2 and rH, can be measured.
Water proton nuclear magnetic resonance dispersion NMRD profile is used to record the longitudinal water proton relaxation rates as a function of magnetic fields. The method is, in principle, sensitive to all of the parameters that influence relaxivity. The ^1H NMRD profiles were measured over a continuum of magnetic field strength from 0.00024 to 0.24 T (corresponding to 0.01-10 MHz proton Larmor frequency, 1 T≈41.7 MHz) on a Spinmaster FFC (Stelar, Mede (PV)), which is a fast field-cycling NMR relaxometer installed at the LIMA Laboratory (Bioindustry Park, Ivrea (TO), Italy). The relaxometer worked under complete control with an absolute uncertainty in 1/T1 of ±2%. The NMRD profiles were measured using 1-2 mM solutions of the complexes.

[3] = 1H NMRD profiles (water proton relaxivity); format: physicochemical; settings: 20 MHz; for proton relaxivity r1 (r1p): 25° C., pH 6.9
[4] = Variable-temperature 17O NMR transverse relaxation rate; format: physicochemical; settings: for water exchange rate kex^298 / TM: 25° C.; for TM: pH 6.9, derived from VT 17O NMR spectroscopy; for exchange lifetime TM of inner-sphere coordinated water: 298 K (25° C.), 2.12 T; for q, inner-sphere coordinated water molecules: from NMRD profile / 17O NMR data, near neutral pH
Description: as §2
The variable-temperature ^17O NMR measurements were recorded on a JEOL EX-90 (2.1 T) spectrometer that was equipped with a 5 mm probe, by using a D2O external lock. The experimental settings were: spectral width of 10000 Hz, pulse width of 7 μs, acquisition time of 10 ms, 1000 scans, and no sample spinning. Solutions containing 2.6% of ^17O isotope were used. The observed transverse relaxation rates (R2obs^O) were calculated from the signal width at half height.

[5] = cited from earlier work
liver parenchyma = assay: In vivo MRI, hepatic intensity enhancement; design: species or system rat; settings: for maximal hepatic IE: 0.1 mmol/kg (standard dosage), rat
Protocol: as §1

[6] = Luminescence lifetime measurements for inner-sphere water molecules q (Tb complexes); format: physicochemical; settings: for kH2O, absolute emission depopulation rate constant: in H2O; for kH2O, absolute emission depopulation rate constant / kH2O (Table 1), absolute emission depopulation rate constant / q, hydration state: pH 6.9 (0.1 M Tris/HCl), 298 K; for kH2O, absolute emission depopulation rate constant / kH2O (Table 1), absolute emission depopulation rate constant: ±10%; for kH2O (Table 1), absolute emission depopulation rate constant: title names H2O and D2O; for q, hydration state: q^Tb = 5 (1/τH2O - 1/τD2O-0.06); for inner-sphere coordinated (bound) water molecules: luminescent measurements, pH 6.9
Description: As previously mentioned, inner-sphere proton relaxivity is linearly proportional to the number of water molecules q that are directly coordinated to the Gd^3+ center. However, there is a trade-off between the q value and toxicity. […] It is noteworthy that there is no direct method of measuring the hydration number. The two commonly used indirect methods are as follows: (1) Lanthanide-induced shift (LIS) methods (see, Alpoim et al., J. Chem. Soc., Dalton Trans., 1992, 463). For paramagnetic Ln^3+ ions, the plot of the observed ^17O shift in Ln^3+ chelate solution versus the complex concentration gives a straight line, with the slope being proportional to its hydration number. (2) The lanthanide luminescence method. According to the Horrocks equation, the q value can be calculated by the emission rate constants for the depopulation of Tb^3+ or Eu^3+ complexes measured in H2O and D2O (see, Beeby at al., J. Chem. Soc., Perkin Trans. 2, 1999, 493). With this method, the q values of the Gd^3+ complexes in aqueous solution can be measured indirectly by their corresponding Tb^3+ or Eu^3+ complexes, because of the very similar coordination behavior between these three lanthanide ions.
Luminescence lifetime measurements were all obtained on a Perkin-Elmer LS 50B spectrofluorimeter with a 420 nm cut-off filter. The concentration of the complex was 1×10^−5˜1×10^−4 mol dm^−3. The emission of Tb^3+ or Eu^3+ complexes was monitored at […]. Gd^3+ is a neighbor of Eu^3+ and Tb^3+ with a nearly identical ionic radius, and thus their chemistries are virtually identical. Therefore, the Horrocks equation for determining the number of coordinated water molecules q for Eu^3+ and Tb^3+ is still valid for the calculation of the q value of Gd^3+. In general, the number of coordinated water molecules q can be determined by the measurement of the luminescent lifetime of the complexes separately in H2O and D2O by application of the Horrocks equation. q′corr=A′(kH2O−kD2O−a) where k is the constant for depopulation (reciprocal of luminescent lifetime), and A is a proportionality constant that signifies the sensitivity of the lanthanide ion to vibronic quenching by OH oscillators. a is correlation value for the consideration of the outer-sphere water molecules.

Structure (SMILES)	D [2] [cm^2s^−1]	TR [2] [ps]	TV [2] [ps]	a [2] [Å]	q [2]	r [2] [Å]	Δ^2 [2] [s⁻¹]	TM [4] [ns]	kH2O, absolute emission depopulation rate constant [6] [ms^−1]	kH2O (Table 1), absolute emission depopulation rate constant [6] [ms^−1]	q, hydration state [6]	further results
O=C([O-])CN1CCNCCN(CC(=O)[O-])CCN(CC(=O)[O-])CC1.[Gd+3] [Gd-DO3A, reference compound]	2.24E-5	66	14	3.9	2	3.15	4.6e+19	160				maximal renal intensity enhancement (IE) (kidney cortex): 140%; time after administration at which almost all renal IE was diminished (kidney cortex; 0.1 mmol/kg, kidney cortex): 120 min; cell morphology (apoptotic or necrotic cells) (MIHA cells): no obvious apoptotic or necrotic cells were found; thermodynamic stability log K [1]: 22.0; proton relaxivity r1 (r1p) [3]: 5.72 mM⁻¹ s⁻¹; water exchange rate kex^298 [4]: 6.3e+06 s⁻¹; exchange lifetime TM of inner-sphere coordinated water [4]: 160 ns
O=C([O-])CN(CCN(CC(=O)[O-])CC(=O)O)CCN(CC(=O)[O-])CC(=O)O.[Gd+3] [Gd-DTPA, reference compound]	2.24E-5	73	20	4.0	1	3.1	4.2e+19	250				r1p ([5]; 20 MHz, 298 K, typical values): 4.69 mM⁻¹ s⁻¹; bound water molecular resident lifetime TM ([5]; 298 K, typical values): ~303 ns
CC(O)CN1CCN(CC(=O)[O-])CCN(CC(=O)[O-])CCN(CC(=O)[O-])CC1.[Gd+3] (stereo not shown) [Gd-[HP-DO3A]]												relaxivity ([5]; 40° C., 20 MHz): 3.65 mM⁻¹ s⁻¹
O=C([O-])CN1CCN(CCOCC2COCCOCCOCCOCCO2)CCN(CC(=O)[O-])CCN(CC(=O)[O-])CC1.[Gd+3] (stereo not shown) [GdL2, Gd^3+ complex of L2]	2.24E-5	140	13	4.0	2	2.97	9e+19	116				renal enhancement left in less than an hour (kidney cortex; 0.1 mmol/kg): 30%; maximal renal intensity enhancement (IE) (kidney cortex): 135%; hepatic IE level maintained for more than 4 h (liver parenchyma; 0.1 mmol/kg): > 60%; time after administration of maximal hepatic IE (liver parenchyma; 0.1 mmol/kg): 60 min; time for which strong/high hepatic IE was maintained (liver parenchyma; 0.1 mmol/kg): more than 4 h; maximal hepatic IE (liver parenchyma): 100%; proton relaxivity r1 (r1p) [3]: 9.36 mM⁻¹ s⁻¹; outer-sphere contribution to the overall observed proton relaxivity ([3]; pH 10.0): about 50%; outer-sphere relaxivity ([3]; pH 10.0): 2.1 mM⁻¹ s⁻¹; overall relaxivity ([3]; pH 10.0): 4.21 mM⁻¹ s⁻¹; water exchange rate kex^298 [4]: 8.62e+06 s⁻¹; exchange lifetime TM of inner-sphere coordinated water [4]: 116 ns; q, inner-sphere coordinated water molecules [4]: about 2
O=C([O-])CN1CCN(CC(=O)[O-])CCN(CC(=O)N2CCOCCOCCN(Cc3ccc4ccccc4n3)CCOCCOCC2)CCN(CC(=O)[O-])CC1.[Gd+3] [GdL3, Gd^3+ complex of L3]	2.24E-5	210	21	4.2	1	3.03	3e+19	246				maximal renal intensity enhancement (IE) (kidney cortex): 58%; hepatic IE level maintained for more than 4 h (liver parenchyma; 0.1 mmol/kg): about 50%; time for which strong/high hepatic IE was maintained (liver parenchyma; 0.1 mmol/kg): more than 4 h; maximal hepatic IE (liver parenchyma): 59%; reorientation lifetime TR [2]: 210 ps; relaxivity ([3]; pH 7.4): 4.95 mM⁻¹ s⁻¹; exchange lifetime TM of inner-sphere coordinated water [4]: 246 ns; q, inner-sphere coordinated water molecules [4]: 1
O=C([O-])CN1CCN(CC(=O)[O-])CCN(C(CO)C(O)CO)CCN(CC(=O)[O-])CC1.[Gd+3] (stereo not shown) [Gd[DO3A-butrol]]												relaxivity ([5]; 37° C., 20 MHz): 5.6 mM⁻¹ s⁻¹
O=C([O-])CN1CCNCCN(CC(=O)[O-])CCN(CC(=O)[O-])CC1.[Tb+3] [Tb-DO3A, reference compound]									0.88	0.42	2.0	
O=C([O-])CN1CCN(CC(=O)[O-])CCN(CC(=O)[O-])CCN(CC(=O)[O-])CC1.[Tb+3] [Tb-DOTA, reference compound]									0.48	0.27	0.8	
O=C([O-])CN1CCN(CCN2CCOCCOCCOCCOCC2)CCN(CC(=O)[O-])CCN(CC(=O)[O-])CC1.[Tb+3] [TbL1]									0.72	0.34	1.6	inner-sphere coordinated (bound) water molecules [6]: two
O=C([O-])CN1CCN(CCOCC2COCCOCCOCCOCCO2)CCN(CC(=O)[O-])CCN(CC(=O)[O-])CC1.[Tb+3] (stereo not shown) [TbL2]									0.74	0.35	1.7	inner-sphere coordinated (bound) water molecules [6]: two
O=C([O-])CN1CCN(CC(=O)[O-])CCN(CC(=O)N2CCOCCOCCN(Cc3ccc4ccccc4n3)CCOCCOCC2)CCN(CC(=O)[O-])CC1.[Tb+3] [TbL3]									0.50	0.31	0.7	inner-sphere coordinated (bound) water molecules [6]: one
